Reference: patent US7521533B2, “Tryptase polypeptide and uses thereof” (priority 2002, dated 2009)
Entries after “also recorded” stand apart in the source; their conditions may differ.

Experiment: Cleavage of trypsin-susceptible pNA chromogenic substrate, reverse-phase HPLC
Type: biochemical
Details: for ability to cleave D-Ile-Phe-Lys pNA / ability to cleave N-Benzoyl-Pro-Phe-Arg-pNA / ability to cleave N-p-Tosyl-Gly-Pro-Lys 4-pNA: ~2 μg enzyme, 10 μg substrate, 37° C. 2 hrs, 100 mM HEPES pH7.5 10% glycerol, no exogenous heparin
Description: The enzymatic activity of recombinant δ tryptase was evaluated by testing its ability to cleave a panel of three trypsin-susceptible p-nitroanilide (pNA) chromogenic substrates; N-Benzoyl-Pro-Phe-Arg-pNA, D-Ile-Phe-Lys pNA, and N-p-Tosyl-Gly-Pro-Lys 4-pNA (Sigma-Adrich, St Louis, Mo.) and was compared to that of rαII tryptase, and commercially available native human lung tryptase (ICN, Costa Mesa, Calif.) and recombinant human lung βII tryptase (Promega, Madison, Wis.). Pro-δ tryptase (ie prior to removal of the EK susceptible activation peptide), recombinant EK alone, and buffer alone acted as negative controls. Approximately equal amounts (˜2 μg) of the enzymes were incubated with each substrate (10 μg) at 37° C. for 2 hrs, in 100 mM HEPES pH7.5 10% glycerol (total reaction volume=50 μl), and then analysed by HPLC using a reverse-phase column (4.6×50 […] RP18 Xterra, Waters, Bedford, Mass.). In this initial investigation no exogenous heparin was added. Substrate cleavage was determined by the detection of new peaks representing the separated peptide and nitroanilide moieties. The amount of substrate cleaved was estimated by measuring the area under the HPLC peak that corresponded to the liberated peptide moiety using Delta T Scan software version 2.04 (Delta T Devices Ltd, Cambridge, UK). The retention time of the liberated nitroanilide was constant and was experimentally determined to be 2.67 mins.

| Substance | ability to cleave D-Ile-Phe-Lys pNA | ability to cleave N-Benzoyl-Pro-Phe-Arg-pNA | ability to cleave N-p-Tosyl-Gly-Pro-Lys 4-pNA | amount of D-Ile-Phe-Lys pNA substrate cleaved, as much as that cleaved by rβII tryptase (area under HPLC peak of liberated peptide moiety, relative to rβII tryptase) |
| --- | --- | --- | --- | --- |
| rβII tryptase: Commercially available recombinant human lung βII tryptase (Promega) [reference compound] | cleave all three substrates | cleave all three substrates | cleave all three substrates |  |
| rδ tryptase: Recombinant human δ tryptase expressed in bacterial cells, refolded, mature form generated by enterokinase cleavage | able to cleave; also recorded: cleaves | ineffective | ineffective | approximately 12% |
| pro-rδ tryptase: Recombinant δ tryptase prior to removal of the EK susceptible activation peptide; negative control | No substrate cleavage was detected |  |  |  |
